Laboratory results published in ChEMBL document CHEMBL3407349, “The discovery of Polo-like kinase 4 inhibitors: identification of (1R,2S).2-(3-((E).4-(((cis).2,6-dimethylmorpholino)methyl)styryl). 1H.indazol-6-yl)-5'-methoxyspiro[cyclopropane-1,3'-indolin]-2'-one (CFI-400945) as a potent, orally active antitumor agent” (J Med Chem, 2015).

How the values were obtained:
[1] = test system: Rattus norvegicus; assay: Clearance in Sprague-Dawley rat at 1 mg/kg, iv; format: ADME, organism-based; parameters: dose 1 mg/kg, route intravenous; details: in vivo
[2] = test system: HCC1954; assay: Growth inhibition of human HCC1954 cells after 5 days by SRB assay; format: functional
[3] = Half life in human liver microsomes
[4] = target: Cytochrome P450 2C19 (Homo sapiens, UniProt P33261); assay: Inhibition of CYP2C19 (unknown origin) by fluorescence assay
Sequence of Cytochrome P450 2C19 (P33261 whole entry): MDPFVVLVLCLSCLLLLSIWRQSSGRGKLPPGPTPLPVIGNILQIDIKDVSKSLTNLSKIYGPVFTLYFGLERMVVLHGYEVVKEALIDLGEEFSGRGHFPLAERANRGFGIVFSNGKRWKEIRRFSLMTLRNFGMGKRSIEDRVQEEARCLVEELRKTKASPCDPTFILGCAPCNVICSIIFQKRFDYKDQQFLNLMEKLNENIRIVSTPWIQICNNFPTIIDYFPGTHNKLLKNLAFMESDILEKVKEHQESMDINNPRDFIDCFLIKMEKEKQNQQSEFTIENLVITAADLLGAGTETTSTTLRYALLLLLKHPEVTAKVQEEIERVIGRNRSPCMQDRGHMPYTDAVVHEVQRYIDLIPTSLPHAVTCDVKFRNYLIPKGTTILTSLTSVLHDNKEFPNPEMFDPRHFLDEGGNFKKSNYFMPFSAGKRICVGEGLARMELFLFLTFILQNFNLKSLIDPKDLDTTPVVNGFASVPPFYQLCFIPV

[5] = Half life in dog liver microsomes
[6] = Oral bioavailability in beagle dog at 5 mg/kg; format: ADME, organism-based, Canis lupus familiaris; details: in vivo
[7] = target: T1, Cytochrome P450 1A2 (Homo sapiens, UniProt P05177); assay: Inhibition of CYP1A2 (unknown origin) by fluorescence assay; format: ADME
T1 sequence (P05177 whole entry): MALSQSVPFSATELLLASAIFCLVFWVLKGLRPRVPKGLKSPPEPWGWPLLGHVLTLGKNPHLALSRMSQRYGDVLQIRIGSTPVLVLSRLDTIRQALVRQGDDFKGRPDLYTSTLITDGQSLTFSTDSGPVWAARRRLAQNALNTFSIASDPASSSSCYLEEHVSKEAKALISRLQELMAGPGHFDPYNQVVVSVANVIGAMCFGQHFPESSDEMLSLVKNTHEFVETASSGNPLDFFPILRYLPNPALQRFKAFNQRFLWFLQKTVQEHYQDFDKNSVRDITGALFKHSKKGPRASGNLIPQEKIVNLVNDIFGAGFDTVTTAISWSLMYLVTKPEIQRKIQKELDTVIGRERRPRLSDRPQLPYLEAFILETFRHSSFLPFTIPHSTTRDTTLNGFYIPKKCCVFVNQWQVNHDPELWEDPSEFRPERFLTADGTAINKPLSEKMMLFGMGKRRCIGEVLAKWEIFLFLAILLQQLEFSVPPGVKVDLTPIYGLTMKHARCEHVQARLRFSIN

[8] = test system: MDA-MB-231; assay: Growth inhibition of human MDA-MB-231 cells after 5 days by SRB assay; format: functional
[9] = Growth inhibition of human HMEC cells after 5 days by SRB assay; format: cell-based; details: HMEC cells
[10] = Half life in rat liver microsomes
[11] = test system: MDA-MB-468; assay: Growth inhibition of human MDA-MB-468 cells after 5 days by SRB assay; format: functional
[12] = AUC(infinity) in beagle dog at 5 mg/kg, po; format: ADME, organism-based, Canis lupus familiaris; parameters: time infinity, dose 5 mg/kg, route oral; details: plasma
[13] = test system: MCF7; assay: Growth inhibition of human MCF7 cells after 5 days by SRB assay; format: functional
[14] = AUC(infinity) in Sprague-Dawley rat at 1 mg/kg, iv; format: ADME, organism-based; parameters: time infinity, dose 1 mg/kg, route intravenous; details: plasma
[15] = target: Cytochrome P450 2C9 (Homo sapiens, UniProt P11712); assay: Inhibition of CYP2C9 (unknown origin) by fluorescence assay
Sequence of Cytochrome P450 2C9 (P11712 whole entry): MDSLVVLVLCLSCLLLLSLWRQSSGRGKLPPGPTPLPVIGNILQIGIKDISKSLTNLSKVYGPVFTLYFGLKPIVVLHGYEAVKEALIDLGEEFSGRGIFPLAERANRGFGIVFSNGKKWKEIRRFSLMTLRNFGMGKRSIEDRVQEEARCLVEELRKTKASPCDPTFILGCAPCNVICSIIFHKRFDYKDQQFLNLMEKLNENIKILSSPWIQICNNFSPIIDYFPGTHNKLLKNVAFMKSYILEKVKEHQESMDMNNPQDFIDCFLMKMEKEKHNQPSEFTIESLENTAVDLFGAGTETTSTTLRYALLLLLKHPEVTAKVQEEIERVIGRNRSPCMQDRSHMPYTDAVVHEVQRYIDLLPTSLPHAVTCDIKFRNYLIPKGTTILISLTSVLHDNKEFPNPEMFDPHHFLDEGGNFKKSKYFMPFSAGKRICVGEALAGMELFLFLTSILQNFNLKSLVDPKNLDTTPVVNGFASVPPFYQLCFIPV

[16] = test system: Canis familiaris; assay: Clearance in beagle dog at 1 mg/kg, iv; format: ADME, organism-based, Canis lupus familiaris; parameters: dose 1 mg/kg, route intravenous; details: in vivo
[17] = target: T2, Cytochrome P450 3A4 (Homo sapiens, UniProt P08684); assay: Inhibition of CYP3A4 (unknown origin) using BFC as substrate by fluorescence assay
T2 sequence (P08684 whole entry): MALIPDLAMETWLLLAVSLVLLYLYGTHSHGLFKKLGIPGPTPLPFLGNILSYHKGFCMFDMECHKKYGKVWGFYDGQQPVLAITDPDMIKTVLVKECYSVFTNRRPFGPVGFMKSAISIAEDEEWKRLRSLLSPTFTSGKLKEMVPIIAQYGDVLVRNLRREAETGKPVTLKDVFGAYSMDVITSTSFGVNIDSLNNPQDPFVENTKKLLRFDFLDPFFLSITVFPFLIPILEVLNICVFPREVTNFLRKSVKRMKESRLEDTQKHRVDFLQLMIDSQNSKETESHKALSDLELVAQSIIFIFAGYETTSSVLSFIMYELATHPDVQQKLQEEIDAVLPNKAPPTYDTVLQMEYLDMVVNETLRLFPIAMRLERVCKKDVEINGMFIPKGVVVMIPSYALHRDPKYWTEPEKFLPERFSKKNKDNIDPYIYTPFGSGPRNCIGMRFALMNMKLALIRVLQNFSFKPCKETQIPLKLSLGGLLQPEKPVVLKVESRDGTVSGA

[18] = target: Cytochrome P450 2D6 (Homo sapiens, UniProt P10635); assay: Inhibition of CYP2D6 (unknown origin) by fluorescence assay; format: ADME
Sequence of Cytochrome P450 2D6 (P10635 whole entry): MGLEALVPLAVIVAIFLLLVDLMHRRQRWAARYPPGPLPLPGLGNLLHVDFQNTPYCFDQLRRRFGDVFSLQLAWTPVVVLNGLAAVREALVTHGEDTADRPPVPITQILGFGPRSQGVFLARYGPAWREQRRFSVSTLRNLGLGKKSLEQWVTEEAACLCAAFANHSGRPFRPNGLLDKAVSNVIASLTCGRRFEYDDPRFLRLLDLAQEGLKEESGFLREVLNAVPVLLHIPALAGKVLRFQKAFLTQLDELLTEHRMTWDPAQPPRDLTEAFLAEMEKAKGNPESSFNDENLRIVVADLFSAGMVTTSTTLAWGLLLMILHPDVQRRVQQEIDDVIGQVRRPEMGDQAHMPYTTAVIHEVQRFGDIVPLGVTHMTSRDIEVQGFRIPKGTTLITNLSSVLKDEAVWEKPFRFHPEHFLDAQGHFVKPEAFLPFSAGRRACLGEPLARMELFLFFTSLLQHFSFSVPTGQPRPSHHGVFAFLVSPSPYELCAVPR

[19] = AUC in athymic CD1 nude mouse at 25 mg/kg, po by LC/MS/MS analysis; format: ADME, organism-based; parameters: dose 25 mg/kg, route oral; details: plasma
[20] = Cmax in athymic CD1 nude mouse at 25 mg/kg, po by LC/MS/MS analysis; format: ADME, organism-based; parameters: dose 25 mg/kg, route oral; details: in vivo
[21] = AUC(infinity) in Sprague-Dawley rat at 5 mg/kg, po; format: ADME, organism-based; parameters: dose 5 mg/kg, route oral, time infinity; details: plasma
[22] = Half life in Sprague-Dawley rat at 1 mg/kg, iv; format: ADME, organism-based; parameters: dose 1 mg/kg, route intravenous; details: in vivo
[23] = Oral bioavailability in Sprague-Dawley rat at 5 mg/kg; format: ADME, organism-based; details: in vivo
[24] = target: T2, Cytochrome P450 3A4; assay: Inhibition of CYP3A4 (unknown origin) using DBF as substrate by fluorescence assay
[25] = AUC(infinity) in beagle dog at 1 mg/kg, iv; format: ADME, organism-based, Canis lupus familiaris; parameters: time infinity, dose 1 mg/kg, route intravenous; details: plasma
[26] = Half life in beagle dog at 1 mg/kg, iv; format: ADME, organism-based, Canis lupus familiaris; parameters: dose 1 mg/kg, route intravenous; details: in vivo
[27] = Half life in mouse liver microsomes
[28] = target: T3, Serine/threonine-protein kinase PLK4 (Homo sapiens, UniProt O00444); assay: Inhibition of PLK4 (unknown origin) by ELISA
T3 sequence (O00444 whole entry): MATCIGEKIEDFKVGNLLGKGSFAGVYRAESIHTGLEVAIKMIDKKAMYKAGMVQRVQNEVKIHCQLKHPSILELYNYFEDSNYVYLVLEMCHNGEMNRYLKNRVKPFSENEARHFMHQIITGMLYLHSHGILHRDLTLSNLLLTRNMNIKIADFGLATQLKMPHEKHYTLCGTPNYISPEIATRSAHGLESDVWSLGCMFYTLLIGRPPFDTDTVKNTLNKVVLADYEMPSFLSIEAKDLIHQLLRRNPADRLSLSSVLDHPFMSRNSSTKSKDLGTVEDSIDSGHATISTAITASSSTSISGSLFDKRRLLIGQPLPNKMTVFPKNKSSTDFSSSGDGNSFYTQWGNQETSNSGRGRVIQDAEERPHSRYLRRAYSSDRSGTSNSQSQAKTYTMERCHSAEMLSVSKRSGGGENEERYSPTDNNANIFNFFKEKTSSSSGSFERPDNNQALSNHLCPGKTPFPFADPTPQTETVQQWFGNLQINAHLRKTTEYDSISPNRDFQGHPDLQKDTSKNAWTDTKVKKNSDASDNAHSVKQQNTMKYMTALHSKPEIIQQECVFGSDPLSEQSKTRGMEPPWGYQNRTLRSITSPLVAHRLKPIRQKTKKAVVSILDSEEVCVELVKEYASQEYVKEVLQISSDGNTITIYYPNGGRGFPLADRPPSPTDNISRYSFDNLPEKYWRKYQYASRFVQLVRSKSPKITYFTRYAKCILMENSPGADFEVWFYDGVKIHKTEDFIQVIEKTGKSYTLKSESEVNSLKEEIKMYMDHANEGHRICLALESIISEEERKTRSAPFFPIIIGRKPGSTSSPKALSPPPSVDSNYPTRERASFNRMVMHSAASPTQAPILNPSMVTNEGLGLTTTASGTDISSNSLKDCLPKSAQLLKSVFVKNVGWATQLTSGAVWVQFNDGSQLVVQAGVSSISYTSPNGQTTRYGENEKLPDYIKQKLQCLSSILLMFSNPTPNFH

[29] = Homo sapiens, MDA-MB-231, 120 h
[30] = Homo sapiens, MDA-MB-468, 120 h

Row | Structure (SMILES) | clearance [1] | GI50 ([2]; Homo sapiens, HCC1954, 120 h) | half-life ([3]; liver microsomes) | IC50 [4] | half-life ([5]; liver microsomes) | bioavailability [6] | inhibition (INH) [7] | GI50 [8, 29] | GI50 at 120 h [9] | half-life ([10]; liver microsomes) | GI50 [11, 30] | AUC(0-inf) [12] | GI50 ([13]; Homo sapiens, MCF7, 120 h) | IC50 [15] | IC50 [17] | inhibition (INH) [18] | AUC [19] | Cmax [20] | IC50 [24] | half-life ([27]; liver microsomes) | other results
1 | O=C1Nc2ccccc2[C@]12C[C@H]2c1ccc2c(/C=C/c3ccc(CN4CCOCC4)cc3)n[nH]c2c1 | 53.3 mL/min/kg | < 0.001 µM | 45 min | 0.8 µM | 4.7 min | 9.7% | Not Active | 5 µM | 50 µM | 7.3 min | 0.0042 µM | 250 ng·h/mL | 0.8 µM | 0.7 µM | 6.3 µM | Not Active | 10000 ng·h/mL | 3500 ng/mL | 2.7 µM | 15 min | AUC(0-inf) [14]: 312 ng·h/mL; clearance [16]: 33.3 mL/min/kg; AUC(0-inf) [21]: 478 ng·h/mL; half-life [22]: 84 min; bioavailability [23]: 31%; AUC(0-inf) [25]: 515 ng·h/mL; half-life [26]: 192 min
2 | COc1ccc2c(c1)[C@]1(C[C@H]1c1ccc3c(/C=C/c4ccc(CN5CCOCC5)cc4)n[nH]c3c1)C(=O)N2 | 66.7 mL/min/kg |  | 41 min | 1.2 µM | 9.4 min | 71% | Not Active |  | > 50 µM | 8.3 min |  | 1420 ng·h/mL |  | 0.8 µM | 2.4 µM | Not Active | 9500 ng·h/mL | 3500 ng/mL | 6.4 µM | 12 min | GI50 [2]: 0.25 µM; GI50 [8]: < 0.001 µM; GI50 [11]: < 0.0001 µM; GI50 [13]: 0.0001 µM; AUC(0-inf) [14]: 250 ng·h/mL; clearance [16]: 41.7 mL/min/kg; AUC(0-inf) [21]: 272 ng·h/mL; half-life [22]: 66 min; bioavailability [23]: 22%; AUC(0-inf) [25]: 402 ng·h/mL; half-life [26]: 52.2 min
3 | COc1ccc2c(c1)[C@]1(C[C@H]1c1ccc3c(/C=C/c4ccc(CN5C[C@@H](C)O[C@@H](C)C5)cc4)n[nH]c3c1)C(=O)N2C |  | 0.015 µM |  | 0.76 µM |  |  | Not Active | 50 µM | > 30 µM |  | 0.029 µM |  | 0.021 µM | 0.44 µM | 10 µM | Not Active | 6800 ng·h/mL | 3400 ng/mL | > 1 µM |  | half-life ([3]; microsomes): > 60 min; half-life ([5]; microsomes): > 60 min; half-life ([10]; microsomes): 18 min; IC50 [28]: 0.0057 µM; half-life ([27]; microsomes): 10 min
4 | COc1ccc2c(c1)[C@]1(C[C@H]1c1ccc3c(/C=C/c4ccc([C@H](C)N5CCOCC5)cc4)n[nH]c3c1)C(=O)N2C |  | 0.01 µM |  | 0.9 µM |  |  | Not Active | 1 µM | 9.6 µM |  | 0.01 µM |  | 0.05 µM | 0.44 µM | 0.45 µM | Not Active | 16000 ng·h/mL | 3300 ng/mL | 11 µM |  | half-life ([3]; microsomes): 53 min; half-life ([5]; microsomes): 6.8 min; half-life ([10]; microsomes): 10 min; IC50 [28]: 0.0015 µM; half-life ([27]; microsomes): 7.2 min
5 | CC(C)N1CCC(Oc2ccc(/C=C/c3n[nH]c4cc([C@@H]5C[C@@]56C(=O)Nc5ccccc56)ccc34)cc2)CC1 |  | 0.007 µM | > 60 min | 1.9 µM | > 60 min |  | Not Active | 1.6 µM | 4.1 µM | > 60 min | 0.005 µM |  | 0.067 µM | 2.4 µM | > 1 µM | Not Active | 1400 ng·h/mL | 510 ng/mL | 1.6 µM | 30 min | IC50 [28]: 0.0015 µM
6 | Cc1ccc2c(c1)[C@]1(C[C@H]1c1ccc3c(/C=C/c4ccc(CN5CCOCC5)cc4)n[nH]c3c1)C(=O)N2 | 58.3 mL/min/kg | < 0.01 µM | 56 min | 1.2 µM | 9.5 min | 29% | Not Active | 22 µM | 9.3 µM | 9 min | 0.013 µM | 1140 ng·h/mL | < 0.01 µM | 1 µM |  | Not Active | 5500 ng·h/mL | 2100 ng/mL |  | 13 min | AUC(0-inf) [14]: 285 ng·h/mL; clearance [16]: 23.3 mL/min/kg; AUC(0-inf) [21]: 410 ng·h/mL; half-life [22]: 96 min; bioavailability [23]: 28%; AUC(0-inf) [25]: 795 ng·h/mL; half-life [26]: 420 min
